# Data as given in patent US12071488B2, “Method of sensitizing cancer cells to anti-cancer treatment” (TWO TO BIOTECH LTD., priority 2017, dated 2024).
# B1: MPGHSRLLSILVSGLCVVGSSIGVLRRREQAERGSRRCAIAGEERAMLSPSPLPE TPFSPEKGAAFSPIYPRRK (protein, listed as Homo sapiens)
# chain: MPGHSRLLSILVSGLCVVGSSIGVLRRREQAERGSRRCAIAGEERAMLSPSPLPETPFSPEKGAAFSPIYPRRK
# notes: full length polypeptide of 74 amino acid residues described in WO 2009/083968
# Tests used:
# [1] = test system: human TNBC tumors (MDA-MB-231); test: Relative tumor volume in nude mice inoculated with TNBC cells; type: in vivo; conditions: MDA-MB-231 tumors; APC1 15 mg/kg, doxorubicin 3 mg/kg once a week; 5 weeks; control increased linearly
# Source text: To this end, mice were inoculated with TNBC cells as detailed above, briefly 32 nude mice were inoculated subcutaneously with TNBC cells (MDA-MB-231, 8×10^6 cells per mouse).
# [2] = test system: human ovarian cancer cells (OV90); test: Relative tumor volume in nude mice inoculated with human ovarian cancer cells; type: in vivo; conditions: OV90 tumors; APC1 15 mg/kg, doxorubicin 3 mg/kg once a week; 5 weeks; control increased linearly
# Protocol: During the treatment period, each mouse was weighted, and the tumor size was measured by Digital caliper.
# When the tumors exceeded a volume of 40 mm^3 or 50 mm^3 (for OV90 and Panc1, respectively), the mice were randomly divided into four groups of 8 mice each, as follows. A control group was treated with saline only, the APC1-treated group was treated three times a week with doses of APC1 at 15 mg/kg each, the doxorubicin and APC treated group was treated twice a week with doses of APC1 (at 15 mg/kg each) and once a week with doxorubicin (at 3 mg/kg) and the doxorubicin-treated group was treated with doxorubicin only, once a week at a dose of 3 mg/kg. These dosing protocols were repeated throughout the experiment, namely for 5 weeks.
# tumor = conditions: WO 2009/083968; cited from earlier work
# [3] = test system: leukemia and prostate cancer cells; conditions: WO 2009/083968; cited from earlier work
molecule,measurement,setting,value
"COc1cccc2c1C(=O)c1c(O)c3c(c(O)c1C2=O)C[C@@](O)(C(=O)CO)C[C@@H]3O[C@H]1C[C@H](N)[C@H](O)[C@H](C)O1 [doxorubicin, (7S,9S)-7-[(2R,4S,5S,6S)-4-amino-5-hydroxy-6-methyloxan-2-yl]oxy-6,9,11-trihydroxy-9-(2-hydroxyacetyl)-4-methoxy-8,10-dihydro-7H-tetracene-5,12-dione, reference compound]",relative tumor volume,[1],moderate increase
same,relative tumor volume,[2],modest increases
B1,tumor growth in mice,tumor,prevention of tumor growth
same,viability of leukemia and prostate cancer cells,[3],decrease in the viability
